Columns and labels:
[1] = tested on: mouse; test: Tolerability for repeated dose administration in vivo (summary); conditions: for remarks: repeated dose administration; for well-tolerated dose: weekly or twice-weekly administration
[2] = tested on: MEF TrxR1-ko cells; test: Resazurin cytotoxicity assay, MEF TrxR1 knockout, 72 h; conditions: MEF TrxR1-ko vs wt (fl/fl)
Description: A TrxR1 knockout (ko) in mouse embryonic fibroblast (MEF) cells is, however, accessible. We compared its prodrug sensitivity to that of its parental line[49] (wild-type, wt), on the basis that TrxR1-ko should leave most Trx1 in its oxidized state (only a fraction of it can be maintained in the reduced state by alternative reductants such as Grx2),[50] so prodrugs relying on the cytosolic thioredoxin system (Trx1/TrxR1) for most of their bioreductive activation in long-term assays will have lower potency in TrxR1-ko cells.
MEF cells (ko vs. wt) we r e treated with prodrugs of the CBI-TMI and CBI-AZI series for
72 h at concentrations from 10 pm t o 3 0 µM at 27 incremental single concentrations depending on expected
potencies of the constructs. Data from at least 3 individual experiments was combined (no error bars shown for
clarity) for each cell line.

[3] = tested on: 4T1 murine breast cancer; test: 4T1 orthotopic breast cancer efficacy study; assay type: in vivo; conditions: 4T1 in Balb/c mice; CBI prodrugs 3 mg/kg
Description: (§1) We then moved to in vivo anticancer efficacy trials of these prodrugs. […] As one model we chose the syngeneic murine breast cancer 4T1, implanted orthotopically (at the native tissue site) into the fat pad of immunocompetent Balb/c mice (i.e., offering a realistic immune system and tumor microenvironment). This model gives rapid, aggressive tumor growth.[52] As a second model, we chose to xenograft human BxPC-3 pancreatic adenocarcinoma cells into immunodeficient hosts. This is a slower-growing model, with low metastasis, that can be more resistant to traditional antimitotic therapy.[53],[54] Mice were implanted, randomized once tumors reached 100–150 mm^3 volume, and treated once or twice weekly with prodrug or control compounds typically at 3 mg/kg (8–12 animals per condition, Figure 10a). Tumors were measured by caliper during the assay and weighed at termination.
7. 2. in vivo efficacy mouse studies
4T1 efficacy study BxPC-3 efficacy study a Absolute tumour volumes b Absolute tumour volumes […]
days after tumor implantation days after tumor implantation c Relative tumour volumes d Relative tumour volumes […]
e RTV! fi"al day of followu# f ex viv tumour weights g RTV! fi"al day of followu# h ex viv tumour weights (. mice remain in all *roups) (for animals left at day 31)(all *roups have statistical power)(day "2/ all animals left) […]
vehicle(1x)(1x)(1x) (2x)(2x) […]
P-##"0-#$%-&'%P-!!"0-#$%-&'%P-!!"0-#$%-()%P-!!"0-#$%-&'% %rinotecan %rinotecan P-##"0-#$%-&'%P-!!"0-#$%-()%P-!!"0-#$%-&'%P-!!"0-#$%-&'% P-!!"0-#$%-&'% P-!!"0-#$%-&'% […]
i Body weights $ Body weights […]
implant in Balb/c mice, 8 mice per group; (b, d,g,h,j): BxPC-3 subcutaneous xenograft in NMRi mice, 8 mice per […]
treatment (m e d ia n); (e,g) in vivo caliper measurement of relative tum or volumes at final day of followup [last day when all mice in all groups remain in the study] […]
tumor weights at termination of study (only mice not terminated on ethical grounds before the indicated days were harvested); (i,j) Bodyweights (means).
(BxPC-3 study); dotted vertical lines indicate days of [potential] treatment.

[4] = tested on: Balb/c mice; test: Moderate repeated dosing tolerability study; assay type: in vivo; conditions: once weekly
Description: Next, a moderate repeated dosing study in Balb/c mice (3 animals per group) tested the importance of solubilizing the prodrugs.
Methods for in vivo animal studies
All in vivo studies were conducted as contract research together with React ionBiology Eur ope G mbH (Freiburg,
Germany), EPO – Experimental Pharmacology & Oncology GmbH (Berlin, Germany); Bient a/ Enam ine Lt d. (Kyiv,
Ukraine) and Leit at – Managing Technologies (Barcelona, Spain), adhering to the respective animal welfare
Mice were kept in individually ventilated cages at constant temperature (22±2 °C, air-conditioned) and humidity (45
– 65%), under optimum hygienic conditions with 10 – 15 air changes per hour. A cycle of 12 h artificial fluorescent
light ning and 12 h darkness was applied , and animal behavior was monitored daily throughout the studies. The
animals received food and water ad libit um.
To evaluate toxicity of selected compounds, dose level selection studies within dose range from 0.1 mg/kg to
10 mg/kg were performed by intravenous administration into Balb /c mice. Each dose for each tested compound
was administered in one mouse.
changes and clinical signs of gross toxicity three tim es per week for 21 consecutive days of post-dosing period.
After the first week of observation without adverse events, two doses for each test compound were selected as
tolerated. These two doses were tested in two additional mice for confirmation of toler ability. Additional animals
consecutive days of post-dosing period. Toxicity of repeated administrations was tested wit h t hr ee repeat ed pr e-
selected doses at a dosing interval of 7 days. Mortality, body weight changes, and clinical signs of gross toxicity
were monitored after each drug administration and three times per week for 21 consecutive days after the first
compound administration. Bleed ing with subsequent hematological tests, clinical chemistry parameters analysis
(ALT, AST, ALP, LDH, creatine kinase, creatinine, urea, cholesterol, and triglycerides), and necropsy with
macroscopic inspection were performed on the terminal day of the repeated dosing-regime.
To test tolerability of selected compounds in vivo, female BALB/c mice were randomized by weight into seven
groups of t hree animals.

[5] = tested on: human BxPC-3 pancreatic adenocarcinoma; test: BxPC-3 xenograft efficacy study; assay type: in vivo, athymic nu/nu NMRI mice
Description: as §1
Finally, we tested P-SS60-CBI-TMI in the slower-growing pancreatic cancer model BxPC-3 in athymic NMRI mice (8 animals per group). […]

COc1cc2cc(C(=O)N3CC(CCl)c4c3cc(OC(=O)N3CCN(C)C5CSSCC53)c3ccccc43)[nH]c2c(OC)c1OC (mixture of isomers) [Me-SS66C-CBI-TMI]
remarks [1]: well tolerated
well-tolerated dose [1]: 3 mg/kg
fold change of potency wt → ko [2]: 4 ×

COc1cc2cc(C(=O)N3C[C@@H](CCl)c4c3cc(OC(=O)N(CCC(=O)N3CCN(C)CC3)C3CCCCC3)c3ccccc43)[nH]c2c(OC)c1OC [P-CC60-CBI-TMI]
effect on tumor growth [3]: delayed tumor growth in the first week of treatment
remarks [1]: well tolerated
well-tolerated dose [1]: 3 mg/kg

COc1cc2cc(C(=O)N3C[C@@H](CCl)c4c3cc(OC(=O)N3CCN(C(=O)CCC(=O)N5CCN(C)CC5)[C@H]5CSSC[C@H]53)c3ccccc43)[nH]c2c(OC)c1OC [P-SS66C-CBI-TMI]
remarks [1]: well tolerated
well-tolerated dose [1]: 3 mg/kg
fold change of potency wt → ko [2]: 3 ×

COc1cc2cc(C(=O)N3C[C@@H](CCl)c4c3cc(OC(=O)N(CCC(=O)N3CCN(C)CC3)[C@H]3CCSSC3)c3ccccc43)[nH]c2c(OC)c1OC [P-SS60-CBI-TMI]
outcome of repeated dosing at 3 mg/kg [4]: tolerated
effect on tumor growth [3]: maintained statistically significant tumor suppression until study termination
remarks [1]: well tolerated
well-tolerated dose [1]: 3 mg/kg
tumor suppression vs irinotecan ([5]; BxPC-3, 3 mg/kg vs irinotecan 10 mg/kg): almost identical tumor suppression
tumor growth rate suppression ([5]; BxPC-3, once-weekly 3 mg/kg, over 4 weeks): ca. 70%

COc1cc2cc(C(=O)N3CC(CCl)c4c3cc(OC(=O)N3CCN(C)C5CSSCC53)c3ccccc43)[nH]c2c(OC)c1OC (mixture of isomers) [Me-SS66T-CBI-TMI]
remarks [1]: well tolerated
well-tolerated dose [1]: 3 mg/kg
fold change of potency wt → ko [2]: 2 ×

Source: paper PMC10141580, “Cyclic Dichalcogenides Extend the Reach of Bioreductive Prodrugs to Harness Thiol/Disulfide Oxidoreductases: Applications to seco-Duocarmycins Targeting the Thioredoxin System” (ACS Central Science, 2023)
